13 compounds from patent publication US10538485B2, “Compounds for use as therapeutic agents affecting P53 expression and/or activity” (ABIVAX, priority 2011, dated 2020) can be followed below.

This test deals with MDA-MB231-luc-D3H2LN cells. The test can be described thus: Invasion of MDA-MB231-D3H2LN cells into collagen. Type of test: cell-based. The note with it: MDA-MB-231, anti-invasive effect in MDA-MB231 breast cancer cells, concentration giving 0.5 fold the effect of 10 μM Y-27632 ref. compound, read-out: 0.5 fold effect compared to 10 μM Y-27632. An excerpt:
13.4 Effect of Drug Compounds on Invasion of MDA-MB231-D3H2LN Cells into Collagen
A key step in the generation of tumor metastasis is the invasion of tumor cells into the extracellular matrix, a major component of which is collagen. Therefore, the invasion of tumor cells into collagen in vitro may be indicative of the generation of metastasis in vivo. E. g., MDA-MB231-luc-D3H2LN […] breast cancer cells display indeed both higher invasion into collagen in vitro and a higher metastatic potential in vivo as compared to MDA-MB231 cells (from which they were derived). Using these MDA-MB231-luc-D3H2LN cells as a model, the aim of the experiment described here is to identify drug compounds that inhibit the invasion of tumor cells into collagen in vitro, therefore potentially inhibiting also the generation of tumor metastasis in vivo.
Step 1: Preparation of cells at the bottom of a collagen gel: Cells are suspended in a liquid collagen solution (4° C.), distributed into BSA-coated wells, and then collected at the bottom of the wells by centrifugation. The collagen is then solidified by incubation at 37° C. The BSA coating improves the adhesion of the collagen gel.
Step 2: Pre-treatment with the compounds to be tested: Concentrated drug solutions are then added on top of the collagen, and cells are pre-incubated for 24 h with the drugs at low serum conditions (0.025% FBS).
Step 3: Stimulation of invasion: Medium with 5% FBS is then added in order to stimulate invasion of the cells into the collagen gel.
Step 4: Fixation and staining: Following another 24 h incubation, cells are fixed and nuclei are stained.
Step 5: Analysis: Finally, plates are analyzed using an automated microscope. Fluorescent beads that have been included into the BSA coating serve to detect the bottom of the wells. Pictures of the stained nuclei are taken at the same level (0 μm) as well as 25 μm and 50 μm above.
Invasion assay: Negative control: No drug (just DMSO at equivalent concentration). Positive control: 10 μM Y-27632. To avoid edge effects, only the 60 central wells B2-G11 are used; lines A and H as well as columns 1 and 12 remain free. Each drug is tested at least in triplicate. The positive and negative controls should be tested in double triplicates at different positions on each plate. Typical plate map (−=negative control, +=positive control, 1-16=16 different drug compounds):
for each well, calculate the mean invasion distance of the counted cells: (25 μm×number of cells at 25 μm+50 μm×number cells at 50 μm)/sum of cells at 0, 25 and 50 μm
for all four parameters (number of cells at 0 μm, number of cells at 25 μm, number of cells at 50 μm, mean invasion distance of the counted cells), calculate means, SD and CV of the replicates (n=6 for the controls; n=3 for the samples)
invalidate any replicate with a CV≥50% (compound to be re-tested, or assay to be repeated if CV≥50% for the untreated negative control or the compound Y-27632-treated positive control). Y27632 is a selective inhibitor of the Rho-associated protein kinase p160ROCK of the following formula
validate the assay only if the mean invasion distance of the cells treated with 10 μM Y-27632 (positive control) is decreased by ≥40% as compared to the untreated negative control
Anti-invasive effect in MDA-MB231 breast cancer cells: 0.5 fold effect compared to 10 μM Y-27632 ref. compound.
For the compound `O=S(=O)(NCCN1CCCC1)c1cccc(Nc2cccc(/C=C/c3ccncc3)c2)c1` [Compound 25], the IC (0.5-fold effect of 10 uM Y-27632) came to 0.5 ± 0.21 µM.
The value for `O=S(=O)(NCCCN1CCCCC1)c1cccc(Nc2cccc(/C=C/c3ccncc3)c2)c1` [Compound 17] was 0.83 ± 0.09 µM; that for `CCN(CC)CCCNC(=O)c1ccc(Nc2cccc(/C=C/c3ccncc3)c2)c(C)c1` [Compound 6] was 0.7 ± 0.1 µM; that for `O=C(NCCCN1CCCCC1)c1cccc(Nc2cccc(/C=C/c3ccncc3)c2)c1` [Compound 19] was 0.25 ± 0.05 µM.
The value for `O=C(NCCCN1CCCC1)c1cccc(Nc2cccc(/C=C/c3ccncc3)c2)c1` [Compound 22] was 0.3 ± 0.05 µM; that for `CCN(CC)CCCNC(=O)c1ccccc1Nc1cccc(OC(F)(F)F)c1` [Compound 49] was 0.13 ± 0.3 µM.
In the case of `CCN(CC)CCCNC(=O)c1ccccc1Nc1cccc(/C=C/c2ccncc2)c1` [Compound 129], the IC (0.5-fold effect of 10 uM Y-27632) is 0.2 µM.
The same measure for `CCN(CC)CCCNC(=O)c1ccccc1Nc1ccc(OCc2ccccc2)cc1` [Compound 50]: 1 µM.
The same measure for `O=S(=O)(NCCCN1CCOCC1)c1cccc(Nc2cccc(/C=C/c3ccncc3)c2)c1` [Compound 16]: 0.75 ± 0.19 µM.
The same measure for `NC(=O)c1cccc(Nc2cccc(/C=C/c3ccncc3)c2)c1` [Compound 9, 3-[3-(2-pyridin-4-ylvinyl)phenylamino]benzamide]: 1.1 ± 0.4 µM; for `CN1CCN(CCCNC(=O)c2cccc(Nc3cccc(/C=C/c4ccncc4)c3)c2)CC1` [Compound 21, (E)-[3-(4-methyl-piperazinyl)-propyl]-3-[3-(2-pyridin-4-ylvinyl)-phenylamino]-benzamide]: 0.17 ± 0.04 µM.
For `CCN(CC)CCCNS(=O)(=O)c1cccc(Nc2cccc(/C=C/c3ccncc3)c2)c1` [Compound 18, N-(3-diethylaminopropyl)-3-[3-(2-pyridin-4-ylvinyl)phenylamino]benzenesulfonamide], the IC (0.5-fold effect of 10 uM Y-27632) turned out to be 0.55 ± 0.05 µM.
The same measure for `O=S(=O)(NCCN1CCCCC1)c1cccc(Nc2cccc(/C=C/c3ccncc3)c2)c1` [Compound 24]: 0.64 ± 0.2 µM.
